Data: patent US7378406B2, “Use of antiprogestins for prophylaxis and treatment of hormone-dependent diseases” (Schering AG, priority 2000, dated 2008)

Key:
[1] = system: DMBA-induced mammary carcinoma of the rat; assay: DMBA-induced breast cancer model in rat (therapy experiment/dose-response study); assay type: in vivo, rat (female Sprague-Dawley)
Protocol: Immature female Sprague-Dawley rats (49-51 days old; 10 animals/group) were used in this study. Mammary tumors were induced by a single oral administration of 10 mg 7,12-dimethylbenz[a]anthracene (DMBA, Serva/Heidelberg). Rats with at least one established tumor with a size of more than 150 mm^2 were treated for 4 weeks by: 1) solvent control, 2) ovariectomy at treatment start, 3) antiprogestin (I), 0.5 mg/kg s.c., 4) antiprogestin (I), 2 mg/kg s.c., 5) antiprogestin (I), 5 mg/kg s.c., 6) antiprogestin (I), 10 mg/kg s.c., and 7) onapristone, 5 mg/kg, s.c., daily. As a parameter for growth inhibition the change of tumor area (in % with respect to initial tumor size) determined by weekly caliper measurements was used. For statistical analysis of intergroup differences of mean values the Kruskal-Wallis-test was used.

[2] = system: NMU-induced mammary carcinoma of the rat; assay: NMU-induced breast cancer model in rat (therapy experiment); assay type: in vivo, rat (female Sprague-Dawley); details: 4 weeks
Protocol: Tumors were induced by a single intravenous injection of NMU (nitrosomethylurea, 50 mg/kg) in female Sprague-Dawley rats (obtained from Tierzucht Schönwalde, age 50-55 days). Starting 10 days later, rats with at least one established tumor were treated for 4 weeks by: 1) solvent control, 2) ovariectomy at treatment start, 3) antiprogestin (I), 1.0 mg/kg/day, 4) antiprogestin (I), 0.5 mg/kg/day and 5) onapristone, 5 mg/kg/day. As a parameter for growth inhibition the change of tumor area (in % of initial tumor size) determined by weekly caliper measurements was used. For statistical analysis of intergroup differences of mean values the Kruskal-Wallis-test was used.

[3] = system: NMU-induced mammary carcinoma of the rat; assay: NMU-induced breast cancer model in rat (prevention experiment); assay type: in vivo, rat (female Sprague-Dawley); details: 3 mg/kg s.c., 6 days/week, start 10 days after NMU; end of experiment, after 27 weeks
Protocol: Tumors were induced by a single intravenous injection of NMU (nitrosomethylurea, 50 mg/kg) in female Sprague-Dawley rats (obtained from Tierzucht Schonwalde, age 50-55 days). Treatment was started 10 days later as followed: 1) solvent control, 2) ovariectomy at treatment start, 3) tamoxifen, 3 mg/kg s.c., 4) antiprogestin (I), 3 mg/kg, s.c., 5) letrozole, 3 mg/kg s.c., 6) raloxifen, 3 mg/kg s.c., 6 days/week. Rats were examined weekly for breast tumors by palpation. As a parameter for the prophylactic effect the tumor incidence (number of animals/group with tumors in %) was determined. For a further description and evaluation of DMBA and NMU prevention models, see R. G. Metha, European Journal of Cancer 36 (2000), pp. 1275-1282.

[4] = system: DMBA-induced mammary carcinoma of the rat; assay: DMBA-induced breast cancer model in rat (prevention experiment); assay type: in vivo, rat (female Sprague-Dawley); details: 6 days/week, start 20 days after DMBA, end of experiment
Protocol: Immature female Sprague-Dawley rats (49-51 days old; 10 animals/group) were used in this study. The carcinogen 7,12-dimethylbenz[a]anthracene (DMBA) was given as a single oral administration (10 mg). Treatment was started 20 days later as followed: 1) solvent control, 2) ovariectomy at treatment start, 3) tamoxifen, 1 mg/kg s.c., 4) antiprogestin (I), 3 mg/kg, s.c., 6 days/week. Rats were examined weekly for breast tumors by palpation. As a parameter for the prophylactic effect the tumor incidence (number of animals/group with tumors in %) was determined. For a further description and evaluation of DMBA and NMU prevention models, see R. G. Metha, European Journal of Cancer 36 (2000), pp. 1275-1282.

[5] = Bioavailability (general statement); assay type: in vivo; details: oral administration
[6] = Further endocrine side effects (general statement)
[7] = system: T47D breast cancer cells; assay: T47D human xenograft (therapy experiment); assay type: in vivo, human xenograft in Fox Chase scid mice; details: 10 mg/kg s.c.; scid mice with estradiol pellets
Protocol: (§1) Female Fox Chase scid mice (M&B) were supplemented with estradiol pellets (Innovative Research of America). T47D breast cancer cells, obtained from cell culture and suspended in matrigel, were implanted s.c. in the inguinal region of the mice. Treatment was started when the tumors were approximately 25 mm^2 in size. Treatment was continued until progression of the tumors. Experimental groups were: 1) control (vehicle), 2) ovariectomy, 3) antiprogestin (I), 10 mg/kg s.c.Tumor area was determined by caliper measurements. The Kruskal Wallis test was used for statistical analysis of intergroup differences of mean values.

[8] = system: MCF7 breast cancer cells; assay: MCF7 human xenograft (therapy experiment); assay type: in vivo, human xenograft in Fox Chase scid mice; details: 10 mg/kg s.c.; scid mice with estradiol pellets
Protocol: as §1, with “MCF7” for “T47D”, “s.c. Tumor” for “s.c.Tumor”

With `CN(C)c1ccc([C@H]2C[C@]3(C)[C@@H](CC[C@]3(O)CCCO)[C@@H]3CCC4=CC(=O)CCC4=C32)cc1` [Onapristone, onapristone, reference compound] as the compound, how does the “tumor growth inhibition relative to antiprogestin (I)” value ([1]; 5 mg/kg s.c. daily, 4 weeks) read?
Its value is “distinctly less effective than antiprogestin (I) at comparable doses”.

What about the “tumor growth inhibition relative to antiprogestin (I) at 0.5 mg/kg” value ([2]; 5 mg/kg/day) of the same compound?
Its value is “distinctly less effective than antiprogestin (I)”.

Which “tumor growth (change of tumor area) compared with the control” value ([1]; 0.5 mg/kg s.c. daily, 4 weeks) does the source give for `CC(=O)c1ccc([C@H]2C[C@@]3(C)[C@@H](CC[C@@]3(O)C(F)(F)C(F)(F)F)[C@@H]3CCC4=CC(=O)CCC4=C32)cc1` [antiprogestin (I), 11β-(4-acetylphenyl)-17β-hydroxy-17α-(1,1,2,2,2-pentafluoroethyl)-estra-4,9-dien-3-one] here?
The value was “did not significantly prevent the tumor from growing”.

And the “rats with complete tumor regression” value ([1]; 2 mg/kg s.c. daily, 4 weeks)?
The value was 50%.

What about the “tumor growth (change of tumor area), dose-response” value ([1]; 2 mg/kg s.c. daily, 4 weeks) of the same compound?
Its value is “maximal growth inhibition”.

And the “tumor growth (change of tumor area), dose-response” value ([1]; 10 mg/kg s.c. daily, 4 weeks (highest dose))?
The value was “comparable to that of 2 mg/kg”.

What about the “tumor growth (change of tumor area) compared with the control” value ([1]; doses of or above 2 mg/kg s.c. daily, 4 weeks) of the same compound?
Its value is “significant inhibition of tumor growth”.

And the “tumor growth (change of tumor area) compared with the control” value ([2]; 0.5 mg/kg/day)?
Its value is “significant inhibition of tumor growth”.

And the “tumor growth (change of tumor area) compared with the control” value ([2]; 1.0 mg/kg/day)?
The value was “significant inhibition of tumor growth”.

And the “tumor incidence (number of animals/group with tumors in %)” value [3]?
The value was 10%.

And the “tumor incidence (number of animals/group with tumors in %)” value ([4]; 3 mg/kg s.c., after 22 weeks)?
Its value is 10%.

What about the bioavailability [5] of the same compound?
Its bioavailability is “high”.

What about the “further endocrine side effects, e.g. androgen, estrogen or antiglucocorticoid activity” value [6] of the same compound?
The value was “only very weak, if present at all”.

What about the “tumor growth (tumor area)” value [7] of the same compound?
Its value is “inhibition of tumor growth, almost comparable to the effect of conventional estrogen deprivation therapy (ovariectomy)”.

What about the “tumor growth (tumor area)” value [8] of the same compound?
Its value is “inhibition of tumor growth, almost comparable to the effect of conventional estrogen deprivation therapy (ovariectomy)”.

Which “tumor incidence (number of animals/group with tumors in %)” value ([4]; 1 mg/kg s.c.) does the source give for `CC/C(=C(\c1ccccc1)c1ccc(OCCN(C)C)cc1)c1ccccc1` [tamoxifen, reference compound] here?
Its value is 60%.
